# Where two headings read alike, the source gives them in different places.
# Experiments:
# [1] = format: physicochemical; conditions: stored at room temperature (21-25° C.)
# Description: At each time period, 0.05 g of powder was dissolved in 10 ml-15 of ethanol, diluted to fall within the analytical range, and injected into the LCMSMS for analysis.
# [2] = Stability of cannabinoid and Vitamin E components of Beverage 2 (AB Red) stored at 8° C. and 21-25° C., LCMSMS over 570 days
# Description: The LCMSMS was calibrated for 0-50 ng/ml cannabinoids with the same resin material used in the preparation of the concentrates. At each time period, 100 μml of beverage was diluted with 10 ml of methanol and injected into the LCMSMS for analysis.
structure (smiles),measurement,setting,value
"C=C(C)[C@@H]1CCC(C)=C[C@H]1c1c(O)cc(CCCCC)c(C(=O)O)c1O [CBDA, cannabidiolic acid]",Stability in Powder Concentrate (content by LCMSMS),[1]; day 0,0.410 mg/g powder
same,Stability in Powder Concentrate (content by LCMSMS),[1]; day 1,0.412 mg/g powder
same,Stability in Powder Concentrate (content by LCMSMS),[1]; day 2,0.407 mg/g powder
same,Stability in Powder Concentrate (content by LCMSMS),[1]; day 3,0.406 mg/g powder
same,Stability in Powder Concentrate (content by LCMSMS),[1]; day 5,0.414 mg/g powder
same,Stability in Powder Concentrate (content by LCMSMS),[1]; day 8,0.415 mg/g powder
same,Stability in Powder Concentrate (content by LCMSMS),[1]; day 9,0.410 mg/g powder
same,Stability in Powder Concentrate (content by LCMSMS),[1]; day 10,0.418 mg/g powder
same,Stability in Powder Concentrate (content by LCMSMS),[1]; day 11,0.415 mg/g powder
same,Stability in Powder Concentrate (content by LCMSMS),[1]; day 12,0.396 mg/g powder
same,Stability in Powder Concentrate (content by LCMSMS),[1]; day 15,0.399 mg/g powder
same,Stability in Powder Concentrate (content by LCMSMS),[1]; day 16,0.427 mg/g powder
same,Stability in Powder Concentrate (content by LCMSMS),[1]; day 17,0.421 mg/g powder
same,Stability in Powder Concentrate (content by LCMSMS),[1]; day 18,0.418 mg/g powder
same,Stability in Powder Concentrate (content by LCMSMS),[1]; day 19,0.414 mg/g powder
same,Stability in Powder Concentrate (content by LCMSMS),[1]; day 22,0.419 mg/g powder
same,Stability in Powder Concentrate (content by LCMSMS),[1]; day 23,0.396 mg/g powder
same,Stability in Powder Concentrate (content by LCMSMS),[1]; day 24,0.403 mg/g powder
same,Stability in Powder Concentrate (content by LCMSMS),[1]; day 25,0.401 mg/g powder
same,Stability in Powder Concentrate (content by LCMSMS),[1]; day 26,0.397 mg/g powder
same,Stability in Powder Concentrate (content by LCMSMS),[1]; day 29,0.426 mg/g powder
same,Stability in Powder Concentrate (content by LCMSMS),[1]; day 30,0.405 mg/g powder
same,Stability in Powder Concentrate (content by LCMSMS),[1]; day 60,0.418 mg/g powder
same,Stability in Powder Concentrate (content by LCMSMS),[1]; day 90,0.413 mg/g powder
same,Stability in Powder Concentrate (content by LCMSMS),[1]; day 120,0.403 mg/g powder
same,Stability in Powder Concentrate (content by LCMSMS),[1]; day 150,0.412 mg/g powder
same,Stability in Powder Concentrate (content by LCMSMS),[1]; day 180,0.422 mg/g powder
same,Stability in Powder Concentrate (content by LCMSMS),[1]; day 210,0.427 mg/g powder
same,Stability in Powder Concentrate (content by LCMSMS),[1]; day 240,0.417 mg/g powder
same,Stability in Powder Concentrate (content by LCMSMS),[1]; day 270,0.424 mg/g powder
same,Stability in Powder Concentrate (content by LCMSMS),[1]; day 300,0.409 mg/g powder
same,Stability in Powder Concentrate (content by LCMSMS),[1]; day 330,0.424 mg/g powder
same,Stability in Powder Concentrate (content by LCMSMS),[1]; day 360,0.413 mg/g powder
same,Stability in Powder Concentrate (content by LCMSMS),[1]; day 390,0.407 mg/g powder
same,Stability in Powder Concentrate (content by LCMSMS),[1]; day 420,0.420 mg/g powder
same,Stability in Powder Concentrate (content by LCMSMS),[1]; day 450,0.398 mg/g powder
same,Stability in Powder Concentrate (content by LCMSMS),[1]; day 480,0.418 mg/g powder
same,Stability in Powder Concentrate (content by LCMSMS),[1]; day 510,0.411 mg/g powder
same,Stability in Powder Concentrate (content by LCMSMS),[1]; day 540,0.425 mg/g powder
same,Stability in Powder Concentrate (content by LCMSMS),[1]; day 570,0.408 mg/g powder
same,Stability of Cannabinoids in AB Red,"[2]; 8° C., 0 days",1.68 µg/mL
same,Stability of Cannabinoids in AB Red,"[2]; 8° C., 1 days",1.69 µg/mL
same,Stability of Cannabinoids in AB Red,"[2]; 8° C., 2 days",1.66 µg/mL
same,Stability of Cannabinoids in AB Red,"[2]; 8° C., 3 days",1.64 µg/mL
same,Stability of Cannabinoids in AB Red,"[2]; 8° C., 5 days",1.67 µg/mL
same,Stability of Cannabinoids in AB Red,"[2]; 8° C., 8 days",1.68 µg/mL
same,Stability of Cannabinoids in AB Red,"[2]; 8° C., 9 days",1.65 µg/mL
same,Stability of Cannabinoids in AB Red,"[2]; 8° C., 10 days",1.67 µg/mL
same,Stability of Cannabinoids in AB Red,"[2]; 8° C., 11 days",1.65 µg/mL
same,Stability of Cannabinoids in AB Red,"[2]; 8° C., 12 days",1.68 µg/mL
same,Stability of Cannabinoids in AB Red,"[2]; 8° C., 15 days",1.67 µg/mL
same,Stability of Cannabinoids in AB Red,"[2]; 8° C., 16 days",1.69 µg/mL
same,Stability of Cannabinoids in AB Red,"[2]; 8° C., 17 days",1.64 µg/mL
same,Stability of Cannabinoids in AB Red,"[2]; 8° C., 18 days",1.65 µg/mL
same,Stability of Cannabinoids in AB Red,"[2]; 8° C., 19 days",1.68 µg/mL
same,Stability of Cannabinoids in AB Red,"[2]; 8° C., 22 days",1.70 µg/mL
same,Stability of Cannabinoids in AB Red,"[2]; 8° C., 23 days",1.63 µg/mL
same,Stability of Cannabinoids in AB Red,"[2]; 8° C., 24 days",1.70 µg/mL
same,Stability of Cannabinoids in AB Red,"[2]; 8° C., 25 days",1.63 µg/mL
same,Stability of Cannabinoids in AB Red,"[2]; 8° C., 26 days",1.63 µg/mL
same,Stability of Cannabinoids in AB Red,"[2]; 8° C., 29 days",1.66 µg/mL
same,Stability of Cannabinoids in AB Red,"[2]; 8° C., 30 days",1.70 µg/mL
same,Stability of Cannabinoids in AB Red,"[2]; 8° C., 60 days",1.66 µg/mL
same,Stability of Cannabinoids in AB Red,"[2]; 8° C., 90 days",1.68 µg/mL
same,Stability of Cannabinoids in AB Red,"[2]; 8° C., 120 days",1.65 µg/mL
same,Stability of Cannabinoids in AB Red,"[2]; 8° C., 150 days",1.66 µg/mL
same,Stability of Cannabinoids in AB Red,"[2]; 8° C., 180 days",1.60 µg/mL
same,Stability of Cannabinoids in AB Red,"[2]; 8° C., 210 days",1.65 µg/mL
same,Stability of Cannabinoids in AB Red,"[2]; 8° C., 240 days",1.66 µg/mL
same,Stability of Cannabinoids in AB Red,"[2]; 8° C., 270 days",1.63 µg/mL
same,Stability of Cannabinoids in AB Red,"[2]; 8° C., 300 days",1.65 µg/mL
same,Stability of Cannabinoids in AB Red,"[2]; 8° C., 330 days",1.60 µg/mL
same,Stability of Cannabinoids in AB Red,"[2]; 8° C., 390 days",1.63 µg/mL
same,Stability of Cannabinoids in AB Red,"[2]; 8° C., 420 days",1.63 µg/mL
same,Stability of Cannabinoids in AB Red,"[2]; 8° C., 450 days",1.63 µg/mL
same,Stability of Cannabinoids in AB Red,"[2]; 8° C., 480 days",1.60 µg/mL
same,Stability of Cannabinoids in AB Red,"[2]; 8° C., 510 days",1.55 µg/mL
same,Stability of Cannabinoids in AB Red,"[2]; 8° C., 540 days",1.55 µg/mL
same,Stability of Cannabinoids in AB Red,"[2]; 8° C., 570 days",1.54 µg/mL
same,Stability of Cannabinoids in AB Red,"[2]; 21-25° C., 0 days",1.68 µg/mL
same,Stability of Cannabinoids in AB Red,"[2]; 21-25° C., 1 days",1.70 µg/mL
same,Stability of Cannabinoids in AB Red,"[2]; 21-25° C., 2 days",1.65 µg/mL
same,Stability of Cannabinoids in AB Red,"[2]; 21-25° C., 3 days",1.64 µg/mL
same,Stability of Cannabinoids in AB Red,"[2]; 21-25° C., 5 days",1.69 µg/mL
same,Stability of Cannabinoids in AB Red,"[2]; 21-25° C., 8 days",1.64 µg/mL
same,Stability of Cannabinoids in AB Red,"[2]; 21-25° C., 9 days",1.63 µg/mL
same,Stability of Cannabinoids in AB Red,"[2]; 21-25° C., 10 days",1.61 µg/mL
same,Stability of Cannabinoids in AB Red,"[2]; 21-25° C., 11 days",1.64 µg/mL
same,Stability of Cannabinoids in AB Red,"[2]; 21-25° C., 12 days",1.70 µg/mL
same,Stability of Cannabinoids in AB Red,"[2]; 21-25° C., 15 days",1.64 µg/mL
same,Stability of Cannabinoids in AB Red,"[2]; 21-25° C., 16 days",1.67 µg/mL
same,Stability of Cannabinoids in AB Red,"[2]; 21-25° C., 17 days",1.63 µg/mL
same,Stability of Cannabinoids in AB Red,"[2]; 21-25° C., 18 days",1.65 µg/mL
same,Stability of Cannabinoids in AB Red,"[2]; 21-25° C., 19 days",1.70 µg/mL
same,Stability of Cannabinoids in AB Red,"[2]; 21-25° C., 22 days",1.66 µg/mL
same,Stability of Cannabinoids in AB Red,"[2]; 21-25° C., 23 days",1.63 µg/mL
same,Stability of Cannabinoids in AB Red,"[2]; 21-25° C., 24 days",1.65 µg/mL
same,Stability of Cannabinoids in AB Red,"[2]; 21-25° C., 25 days",1.64 µg/mL
same,Stability of Cannabinoids in AB Red,"[2]; 21-25° C., 26 days",1.67 µg/mL
same,Stability of Cannabinoids in AB Red,"[2]; 21-25° C., 29 days",1.62 µg/mL
same,Stability of Cannabinoids in AB Red,"[2]; 21-25° C., 30 days",1.68 µg/mL
same,Stability of Cannabinoids in AB Red,"[2]; 21-25° C., 60 days",1.59 µg/mL
same,Stability of Cannabinoids in AB Red,"[2]; 21-25° C., 90 days",1.60 µg/mL
same,Stability of Cannabinoids in AB Red,"[2]; 21-25° C., 120 days",1.64 µg/mL
same,Stability of Cannabinoids in AB Red,"[2]; 21-25° C., 150 days",1.58 µg/mL
same,Stability of Cannabinoids in AB Red,"[2]; 21-25° C., 180 days",1.64 µg/mL
same,Stability of Cannabinoids in AB Red,"[2]; 21-25° C., 210 days",1.64 µg/mL
same,Stability of Cannabinoids in AB Red,"[2]; 21-25° C., 240 days",1.60 µg/mL
same,Stability of Cannabinoids in AB Red,"[2]; 21-25° C., 270 days",1.65 µg/mL
same,Stability of Cannabinoids in AB Red,"[2]; 21-25° C., 300 days",1.58 µg/mL
same,Stability of Cannabinoids in AB Red,"[2]; 21-25° C., 330 days",1.65 µg/mL
same,Stability of Cannabinoids in AB Red,"[2]; 21-25° C., 390 days",1.61 µg/mL
same,Stability of Cannabinoids in AB Red,"[2]; 21-25° C., 420 days",1.59 µg/mL
same,Stability of Cannabinoids in AB Red,"[2]; 21-25° C., 450 days",1.57 µg/mL
same,Stability of Cannabinoids in AB Red,"[2]; 21-25° C., 480 days",1.57 µg/mL
same,Stability of Cannabinoids in AB Red,"[2]; 21-25° C., 510 days",1.56 µg/mL
same,Stability of Cannabinoids in AB Red,"[2]; 21-25° C., 540 days",1.57 µg/mL
same,Stability of Cannabinoids in AB Red,"[2]; 21-25° C., 570 days",1.54 µg/mL
